Data on 24 compounds can be found in US11208405B2, “Pyrrole derivatives as PLK1 inhibitors” (SENTINEL ONCOLOGY LIMITED, priority 2017, dated 2021).

Counter-ions that a name gives are not always drawn. A value given as a limit tells only on which side of the number the result lay.

What all share (format): cell-based
One assay has as its system HeLa cells. The assay can be described thus: Arresting cells in mitosis (Mitotic Index, phosphorylated Histone H3 immunofluorescence). To be noted: HeLa cell line, 24 hours; for EC50: Homo sapiens, Mitotic Index, read-out: EC50. How it is done:
Assay to Measure the Effects of Compounds of the Invention on Arresting Cells in Mitosis
Inhibiting the ability of PLK1 to bind to its phosphopeptide binding partners through the PBD causes cells to arrest in mitosis. Experimentally, this is measured by assessing the number of cells which are in mitosis at a certain time after treatment with a PLK1-PBD inhibitor by immunofluorescent detection of phosphorylated Histone H3 (pH3), a marker which is only present in mitotic cells. PLK1-PBD inhibitors are expected to cause a dose-dependent increase in pH3-positive cells, which is reported as Mitotic Index (MI)—the percentage of cells which, at a given time, are positive for this mitotic mark. The following protocol has been used to measure MI: • 1. Plate HeLa cells at 10,000/well in 100 μL/well in clear flat-bottom 96-well plates and incubate overnight. • 2. Immediately prior to treatment, dilute compounds in medium in a 96-well round-bottom plate. Make up all compounds at 5 times final desired concentration on cells, and serially dilute 1:2 across the plate ensuring that there is 100 μL of each concentration (start with 200 μl of the top concentration on the left of the plate). […] Treat cells by adding 25 μL from the compound dilution plate to triplicate wells. • 4. Incubate cells with compound for 24 hours. • 5. After 24 hours, fixation and staining is carried out as follows: • 6. Dilute 37% formaldehyde in PBS to give a 12.95% solution by adding 3.5 mL formaldehyde to 6.5 mL of PBS. • 7. Add 50 μL of formaldehyde fixation solution directly to each well of cells (which already contain 125 μL medium). • 8. Incubate at room temp for 10 minutes. • 9. Remove fixative and add 100 μL/well PBS+0.1% Triton X-100 for 10 minutes. • 10. Aspirate and add 100 μL/well PBS+1% BSA. • 11. Aspirate and add 50 μL/well of primary antibody (anti-PH3 [1:2000]/anti-MPM2 [1:1000]) diluted in PBS+1% BSA. Incubate for 1 hour. • 12. Wash×2 with 100 μL/well PBS+1% BSA. • 13. Add 50 μL/well of secondary antibody plus Hoechst stain (anti-rabbit Alexafluor 488 [1:500]; anti-mouse Alexafluor 546 [1:500]+Hoechst 33342 [1:2500 final concentration=4 μg/mL])diluted in PBS+1% BSA. Incubate for 1 hour. • 14. Wash twice with 100 μL/well PBS+1% BSA. • 15. Aspirate and add 100 μL/well PBS. Plates can be stored at 4° C. in PBS for several weeks before scanning on the Cellomics Arrayscan. […] Scan on Cellomics using Target Activation Bioapplication. • 17. MI data emerging from the Cellomic Bioapplication can be used to plot MI versus compound concentration, and subsequently used to generate an EC50 value for each compound using an appropriate graphing/curve-fitting package such as GraphPad Prism.

In the next assay the test system is HCT116 cells. The assay can be described thus: Effects on HCT116 colorectal cancer cell viability (cell titre blue, 72 hours). To be noted: Homo sapiens, HCT-116, HCT116 cell line. As to the method: Assay to Measure the Effects of Compounds of the Invention on HCT116 Colorectal Cancer Cell Viability
The following protocol was used to measure the effects of compounds of the invention on HCT116 cell viability.
1. HCT116 cells were grown in RPM11640 media supplemented with Glutamax and 10% FBS in a 37° C./5% CO2 incubator.
2. Growing culture of HCT116 cells were trypsinised, counted and diluted to give 10,000 cells/mL in an appropriate volume, allowing at least 6 mL of cells per plate.
3. 200 μL of PBS were added to all the outer wells of a flat-bottomed (8×12) 96-well TC plate. 100 μL of media were added only to wells in column 11 of the plates (these wells provided a blank for the cell titre blue assay). Two compounds were assayed on each plate.
4. 100 ul of 10,000 cells/mL HCT116s were plated in rows B-G of each plate.
5. The cells were incubated (37° C. 5% CO2) for 24 hours before treating with compounds.
6. An 8 mM compound stock in DMSO was prepared for all compounds to be tested. 2.5 μL of the compound stock was added to 1000 μL growth medium in a 96-well deep well block and serial dilutions were prepared across the plate by transferring 500 μL into wells containing 500 μL growth medium+0.25% DMSO to give eight concentrations of compound (this ensured a constant amount of DMSO at all concentrations of compound). When making up growth medium+DMSO, an amount of 5 ml was allowed per compound to be diluted.
7. 3 rows of cells were treated with 100 μL/well from each row on the dilution plate so that each cell plate is treated with a single compound. This gave a final volume in all wells of 200 μL and a titration of compound from a final concentration of 10 uM down to 78 nM.
8. The cells were incubated (37° C. 5% CO2) for 72 hours.
9. 5 ul cell titre blue reagent (Promega) were added to all wells except the edge wells (which contain PBS only) and incubated (37° C. 5% CO2) for 2.5-3 hours.
10. Fluorescence was measured on a suitable plate reader using a 530-570 nm filter set for excitation and a 580-620 nm filter set for fluorescence emission.
11. Data were analysed using an appropriate graphing package (such as GraphPad Prism). Data were expressed as the concentration of compound causing a 50% inhibition of cell viability or GI50.

The test system of another assay is wild-type HeLa cell line. The assay can be described thus: Wild-type versus KRAS HeLa cell viability: wild-type KRAS transgene. To be noted: Homo sapiens; HeLa cells expressing wild-type KRAS, 72 hours; read-out: WT GI50. As to the method: (§1) Assay to Measure the Effects of Compounds of the Invention on Wild-Type Versus KRAS HeLa Cell Viability
(§2) Identifying synthetic lethal interactions between targeted small molecule therapies and characterised oncogenic mutations is a goal of modern oncology drug discovery efforts. To this end, PLK1-PBD inhibitors were tested on HeLa cells engineered to inducibly express wild-type or oncogenic KrasG12V transgenes using the FLP-in/T-Rex system (Invitrogen). Cells were plated, and then treated with or without Doxycycline to induce transgene expression, and then treated with serially-diluted PBD inhibitors. After 72 hours of incubation, cell viability was assessed using the Cell Titre Blue reagent (Promega) and a BMG Pherastar plate reader. The effect of PBD inhibition on cell viability with either wild-type or oncogenic G12V KRAS was assessed using the graphing/curve-fitting packages in GraphPad Prism.

The next assay deals with KRAS G12V HeLa cell line. The assay can be described thus: Wild-type versus KRAS HeLa cell viability: oncogenic KrasG12V transgene. The settings on record: Homo sapiens; HeLa cells expressing KRAS G12V, 72 hours. How it is done:
as §1, §2

For the compound `CN(C)CCNC(=O)c1cccc(-c2ccc(-c3ccccc3)n2-c2ccccc2C(F)(F)F)c1` [Example 3, hydrochloride], in the assay with HeLa cells, the “% mitotic cells” value came to 65% and the EC50 stood at 1580 nM.
The like results for `CN(C)CCNC(=O)c1cccc(-c2ccc(-c3ccc(Br)cc3)n2-c2ccc(Cl)cc2C(F)(F)F)c1` [Example 4, hydrochloride] were, in that order, 65% and 550 nM.
As to `CN(C)CCNC(=O)c1cccc(-c2ccc(-c3ccc(Br)cc3)n2-c2cnccc2C(F)(F)F)c1` [Example 6], the GI50 in the assay on HCT116 cells was determined as 200 nM. In the assay on HeLa cells, the “% mitotic cells” value was determined as 86% and the EC50 stood at 660 nM.
The like results for `CN(C)Cc1cccc(-c2ccc(-c3ccc(Br)cc3)n2-c2ccccc2C(F)(F)F)c1` [Example 7, 1-[3-[5-(4-bromophenyl)-1-[2-(trifluoromethyl)phenyl]pyrrol-2-yl]phenyl]-N,N-dimethyl-methanamine Hydrochloride] were, in that order, 1060 nM, 75% and 2200 nM.
For the compound `CN1CCC(CNC(=O)c2cccc(-c3ccc(-c4ccc(Br)cc4)n3-c3ccccc3C(F)(F)F)c2)CC1` [Example 10], the GI50 with HCT116 cells stood at 340 nM. Moreover, in the assay on HeLa cells, the “% mitotic cells” value is on record as 62% and the EC50 was found to be 780 nM.
The like results for `CN1CCC(NC(=O)c2cccc(-c3ccc(-c4ccc(Br)cc4)n3-c3ccccc3C(F)(F)F)c2)CC1` [Example 11, hydrochloride] were, in that order, 360 nM, 54% and 800 nM.
The like results for `CN(C)CCN(C)C(=O)c1cccc(-c2ccc(-c3ccc(Br)cc3)n2-c2ccccc2C(F)(F)F)c1` [Example 12, hydrochloride] were, in that order, 290 nM, 62% and 790 nM.
Regarding `CN1CC[C@@H](NC(=O)c2cccc(-c3ccc(-c4ccc(Br)cc4)n3-c3ccccc3C(F)(F)F)c2)C1` [Example 13, hydrochloride], in the assay on HCT116 cells, the 50% growth inhibitory concentration (GI50) was 660 nM. In addition, in the assay with HeLa cells, the “% mitotic cells” value is 71% and the half-maximal effective concentration (EC50) amounted to 750 nM.
As to `CN1CCC(NC(=O)c2cccc(-c3ccc(-c4ccc(Br)cc4)n3-c3ccccc3C(F)(F)F)c2)C1` (stereo not drawn) [Example 14, hydrochloride], in the assay on HeLa cells, the “% mitotic cells” value was found to be 68% and the EC50 is 830 nM.
Turning to `CN(C)CCNC(=O)c1ccc(Cl)c(-c2ccc(-c3ccc(Br)cc3)n2-c2ccccc2C(F)(F)F)c1` [Example 15, hydrochloride], the GI50 came to 2180 nM in the assay on HCT116 cells, 650 nM with wild-type HeLa cell line and 380 nM in the assay with KRAS G12V HeLa cell line.
Regarding `CN(C)CCCOc1cccc(-c2ccc(-c3ccc(Br)cc3)n2-c2ccccc2C(F)(F)F)c1` [Example 17, 3-[3-[5-(4-Bromophenyl)-1-[2-(trifluoromethyl)phenyl]pyrrol-2-yl]phenoxy]-N,N-dimethyl-propan-1-amine Hydrochloride], in the assay with HeLa cells, the “% mitotic cells” value was determined as 65% and the EC50 was found to be 1450 nM.
On to `CN(C)CCNCc1cccc(-c2ccc(-c3ccc(Br)cc3)n2-c2ccccc2C(F)(F)F)c1` [Example 18, hydrochloride], for which, in the assay on HeLa cells, the “% mitotic cells” value came out at 67% and the EC50 is 1640 nM.
In turn, `CC(C)c1ccc(-c2ccc(-c3cccc(C(=O)NCCN(C)C)c3)n2-c2ccccc2C(F)(F)F)cc1` [Example 22, hydrochloride] registered a GI50 with HCT116 cells of 2750 nM. Also, in the assay with HeLa cells, the “% mitotic cells” value turned out to be 5% and the EC50 is over 10000 nM.
`CN(C)CCNC(=O)c1cccc(-c2ccc(-c3ccc(Br)cc3)n2-c2ccccc2O)c1` [Example 25, hydrochloride]: the results for the GI50 in the assay with HCT116 cells, with wild-type HeLa cell line and with KRAS G12V HeLa cell line were 3890 nM, 2510 nM and 3580 nM, respectively.
The like results for `CN(C)CCNC(=O)c1ccc(-c2ccc(-c3ccccc3)n2-c2ccccc2C(F)(F)F)cc1` [Example 26, hydrochloride] were, in that order, 120 nM, 120 nM and 70 nM.
As for `CN(C)CCNC(=O)c1ccc(-c2ccc(-c3ccc(Br)cc3)n2-c2ccccc2C(F)(F)F)cn1` [Example 28], the GI50 was 60 nM in the assay on wild-type HeLa cell line and 30 nM with KRAS G12V HeLa cell line.
On to `CN(C)CCCNC(=O)c1ccc(-c2ccc(-c3ccc(Br)cc3)n2-c2ccccc2C(F)(F)F)cc1` [Example 34], for which the GI50 in the assay on HCT116 cells was found to be 80 nM; with wild-type HeLa cell line, 130 nM; in the assay with KRAS G12V HeLa cell line, 90 nM.
Regarding `CN(C)CCCOc1ccc(-c2ccc(-c3ccc(Br)cc3)n2-c2ccccc2C(F)(F)F)cc1` [Example 35, hydrochloride], the GI50 stood at 220 nM in the assay on HCT116 cells, 210 nM in the assay on wild-type HeLa cell line and 140 nM in the assay on KRAS G12V HeLa cell line.
The like results for `CN(C)CCNC(=O)c1ccc(-c2ccc(-c3ccc(Br)cc3)n2-c2ccccc2C(F)(F)F)c(Cl)c1` [Example 36, hydrochloride] were, in that order, 30 nM, 120 nM and 60 nM.
On to `CN(C)CCNC(=O)c1ccc(-c2ccc(-c3ccccc3)n2-c2ccccc2C(F)(F)F)c(Cl)c1` [Example 37, hydrochloride], for which the GI50 in the assay with HCT116 cells is 20 nM; with wild-type HeLa cell line, 50 nM; with KRAS G12V HeLa cell line it was 20 nM.
`CN(C)CCNC(=O)c1ccc(-c2ccc(-c3ccc(Br)cc3)n2-c2cnccc2C(F)(F)F)cc1` [Example 41]: the GI50 in the assay on HCT116 cells is 50 nM; in the assay with wild-type HeLa cell line it was 40 nM; with KRAS G12V HeLa cell line, 20 nM.
The compound `CN(C)CCCNC(=O)c1ccc(-n2ncc(-c3ccc(Cl)cc3)c2-c2ccccc2C(F)(F)F)cc1` [Example 105, hydrochloride] registered a GI50 in the assay with HCT116 cells of 100 nM.
In turn, `CN(C)CCNC(=O)c1ccc(-n2ncc(-c3ccc(F)cc3)c2-c2ccccc2C(F)(F)F)cc1` [Example 106, hydrochloride] registered a GI50 in the assay with HCT116 cells of 80 nM.
For `CN(C)CCNC(=O)C(C)(C)c1ccc(-c2ccc(-c3ccc(Cl)cc3)n2-c2ccccc2C(F)(F)F)cc1` [Example 107, hydrochloride], in the assay with HCT116 cells, it took 160 nM to inhibit growth by half (GI50).
